Results as given in article PMC5656322, “BAK1 is involved in AtRALF1-induced inhibition of root cell expansion” (PLoS Genetics, 2017).
Where no end group is shown, it is not given here.

Experiments:
[1] = system: Arabidopsis seedlings, rhizosphere; assay: Rhizosphere alkalinization, gel with pH indicator bromocresol purple; assay type: in vivo, Arabidopsis thaliana; settings: wild-type and bak1 seedlings, 10 μM, 30 min, pH 5.7
Description: To analyze the rhizosphere alkalinization, seedlings were grown in plates for 7 days. To avoid damage to the roots, the medium was solidified with 12 g l^-1 Phytagel. Seedlings were transferred to plates containing the pH indicator bromocresol purple (pH 5.7) as described previously and treated with 10 μM AtRALF1 or water. Images were captured 30 min after transfer onto the gel indicator. The experiments were repeated at least three times using independent biological replicates. The data shown are from one representative experiment.

BRI1 (BRI1-ECD) = assay: Yeast two-hybrid with BRI1-ECD; assay type: binding, Arabidopsis thaliana; settings: yeast AH109, medium lacking Leu, Trp, His
Description: (§1) Fig 6 AtRALF1 interacts physically with BAK1 protein. (A) The active AtRALF1 peptide interacts with the extracellular domain (ECD) of BAK1 (BAK1-ECD) in yeast. The AtRALF1 protein fused to the GAL4 DNA-binding domain (AtRALF1-pGBKT7) was used as bait to test its interaction with the extracellular domain of the proteins fused to the GAL4 activation domain (pGADT7): BAK1 (BAK1-ECD), BAK7 (BAK7-ECD), BRI1 (BRI1-ECD) and FLS2 (FLS2-ECD). (B) Blueprint showing the truncated proteins from the extracellular domain of BAK1 tested in the two-hybrid assay. The extracellular domain of BAK1 comprises leucine zippers (LZ), 5 leucine rich-regions (LRRs) and a proline-rich region (pro-rich). (C) AtRALF1-pGBKT7 was used as bait to test its interaction with truncated proteins fused to the GAL4 activation domain (pGADT7). […] HA-BAK1-ECD was detected with an anti-HA antibody. AtRALF1 was detected with an anti-RALF antibody. […] BAK1-GFP was detected with an anti-GFP antibody. […]
(§2) The coding regions of the mature peptides AtRALF1 and AtRALF34 were amplified from Arabidopsis genomic DNA and fused to the GAL4 DNA-binding domain and the MYC epitope tag using the NdeI/BamHI sites in the pGBKT7 (Clontech) vector. […] The proteins fused to the HA and MYC epitope tags were detected by protein blotting. […]

[2] = system: truncated proteins from the extracellular domain of BAK1; assay: Yeast two-hybrid with truncated BAK1-ECD; assay type: binding, Arabidopsis thaliana
Description: Fig 6 AtRALF1 interacts physically with BAK1 protein. (A) The active AtRALF1 peptide interacts with the extracellular domain (ECD) of BAK1 (BAK1-ECD) in yeast. The AtRALF1 protein fused to the GAL4 DNA-binding domain (AtRALF1-pGBKT7) was used as bait to test its interaction with the extracellular domain of the proteins fused to the GAL4 activation domain (pGADT7): BAK1 (BAK1-ECD), BAK7 (BAK7-ECD), BRI1 (BRI1-ECD) and FLS2 (FLS2-ECD). (B) Blueprint showing the truncated proteins from the extracellular domain of BAK1 tested in the two-hybrid assay. The extracellular domain of BAK1 comprises leucine zippers (LZ), 5 leucine rich-regions (LRRs) and a proline-rich region (pro-rich). (C) AtRALF1-pGBKT7 was used as bait to test its interaction with truncated proteins fused to the GAL4 activation domain (pGADT7). The transformed yeast cells in (A) and (C) were selected on a synthetic complete medium lacking leucine, tryptophan and histidine to test interactions. (D, E) Co-immunoprecipitation (Co-IP) in vitro between the extracellular domain of BAK1 (HA-BAK1-ECD) and AtRALF1 recombinant purified proteins. HA-BAK1-ECD was detected with an anti-HA antibody. AtRALF1 was detected with an anti-RALF antibody. (F) Recombinant AtRALF1 is co-immunoprecipitated with the BAK1-GFP protein expressed in tobacco. BAK1-GFP was detected with an anti-GFP antibody. […] (G) Isothermal titration calorimetry (ITC) of the extracellular domain of BAK1 (BAK1-ECD) vs. AtRALF1 in ITC buffer (15 mM HEPES, pH 6.8). ITC experiments were simulated using 28 injections of BAK1-ED (0.7 mM, vol 10 μL) on AtRALF1 (0.03 mM vol cell = 1.4 mL) at 25°C. […]
as §2
Supplementary file pgen.1007053.s012.pdf: S12 Fig Analyses of protein extracts from yeast. […] The proteins were monitored using an anti-HA antibody. […]

BAK7 (BAK7-ECD) = assay: Yeast two-hybrid with BAK7-ECD; assay type: binding, Arabidopsis thaliana; settings: yeast AH109, medium lacking Leu, Trp, His
Description: as §1, §2

[3] = system: BAK1 gene promoter / BAK1-GFP; assay: Quantification of GFP in roots of pBAK1:BAK1-GFP plants; assay type: in vivo, Arabidopsis thaliana; settings: 1 μM, 4 h
Description: Transgenic Arabidopsis plants were grown for 4 days in liquid medium and treated with 1 μM AtRALF1 for 4 h. After 4 h of agitation at room temperature, the intensity of GFP in the roots was analyzed by confocal microscopy (Olympus FV1000). Control plants were kept in a peptide-free medium. The GFP excitation wavelength was 488 nm, and the emission wavelength was 540 nm. Images were generated by a scanner depth of 7 μm. Ten slices per root were generated and compacted in one image. Image processing was performed using the Olympus FluoView software. An average of 20 seedlings were observed under the microscope in at least 3 different experiments using independent biological replicates.

## AtRALF1: root-specific RALF isoform in Arabidopsis; recombinant peptide hormone produced in E. coli (ATTKYISYQSLKRNSVPCSRRGASYYNCQNGAQANPYSRGCSKIARCRS; ends and bridges not checked; cysteine pairing not given here)
[1]
  rhizosphere coloration (alkalinization): developed a purple coloration around the rhizosphere
BRI1 (BRI1-ECD)
  interaction with BRI1-ECD (Y2H complementation): able to complement only the BAK1-ECD construct
[2]; 12 truncated proteins
  interaction with truncated BAK1-ECD: only two that interacted with AtRALF1: Leu zippers + LRR1 + LRR2 + LRR3 and Leu zippers + LRR1 + LRR2
[2]; C-terminal deletion
  interaction with BAK1-ECD lacking Pro-rich region and LRR5: abolished the interaction
[2]; deletions from N-terminal
  interaction with N-terminal deletions of BAK1-ECD: None of the deletions from N-terminal were able to interact with AtRALF1
BAK7 (BAK7-ECD)
  interaction with BAK7-ECD (Y2H complementation): able to complement only the BAK1-ECD construct
[3]
  BAK1-GFP fluorescent signal in roots: quantitative increase in fluorescent signal in the roots
